Our source for the DC50 and Dmax values is US20260092071A1, “COMPOUNDS AND COMPOSITIONS AS SMARCA2/4 DEGRADERS AND USES THEREOF” (REGENTS OF THE UNIVERSITY OF MICHIGAN, priority 2022, published 2026).

Read-outs that look alike come from different tables or passages of the source. Bounds are passed on as bounds.

One test deals with SMARCA4 (Homo sapiens, UniProt P51532). The test can be described thus: HiBit assay in engineered HT1080 CRISPR knock-in cell, 6 hrs (B series), SMARCA4. Format: cell-based. Particulars: for DC50: HT1080 CRISPR knock-in cells, read-out: SMARC A4 HT1080 HiBit DC50. The procedure, abridged: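 Compounds were dispensed first, then HT1080 knock-in cells added and incubated for 6 hrs at 37° C. Next, detection reagent containing LgBiT and lytic substrate was added. Plates were shaken 10 min and centrifuged, and luminescence was measured.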
Sequence of SMARCA4 (P51532 whole entry): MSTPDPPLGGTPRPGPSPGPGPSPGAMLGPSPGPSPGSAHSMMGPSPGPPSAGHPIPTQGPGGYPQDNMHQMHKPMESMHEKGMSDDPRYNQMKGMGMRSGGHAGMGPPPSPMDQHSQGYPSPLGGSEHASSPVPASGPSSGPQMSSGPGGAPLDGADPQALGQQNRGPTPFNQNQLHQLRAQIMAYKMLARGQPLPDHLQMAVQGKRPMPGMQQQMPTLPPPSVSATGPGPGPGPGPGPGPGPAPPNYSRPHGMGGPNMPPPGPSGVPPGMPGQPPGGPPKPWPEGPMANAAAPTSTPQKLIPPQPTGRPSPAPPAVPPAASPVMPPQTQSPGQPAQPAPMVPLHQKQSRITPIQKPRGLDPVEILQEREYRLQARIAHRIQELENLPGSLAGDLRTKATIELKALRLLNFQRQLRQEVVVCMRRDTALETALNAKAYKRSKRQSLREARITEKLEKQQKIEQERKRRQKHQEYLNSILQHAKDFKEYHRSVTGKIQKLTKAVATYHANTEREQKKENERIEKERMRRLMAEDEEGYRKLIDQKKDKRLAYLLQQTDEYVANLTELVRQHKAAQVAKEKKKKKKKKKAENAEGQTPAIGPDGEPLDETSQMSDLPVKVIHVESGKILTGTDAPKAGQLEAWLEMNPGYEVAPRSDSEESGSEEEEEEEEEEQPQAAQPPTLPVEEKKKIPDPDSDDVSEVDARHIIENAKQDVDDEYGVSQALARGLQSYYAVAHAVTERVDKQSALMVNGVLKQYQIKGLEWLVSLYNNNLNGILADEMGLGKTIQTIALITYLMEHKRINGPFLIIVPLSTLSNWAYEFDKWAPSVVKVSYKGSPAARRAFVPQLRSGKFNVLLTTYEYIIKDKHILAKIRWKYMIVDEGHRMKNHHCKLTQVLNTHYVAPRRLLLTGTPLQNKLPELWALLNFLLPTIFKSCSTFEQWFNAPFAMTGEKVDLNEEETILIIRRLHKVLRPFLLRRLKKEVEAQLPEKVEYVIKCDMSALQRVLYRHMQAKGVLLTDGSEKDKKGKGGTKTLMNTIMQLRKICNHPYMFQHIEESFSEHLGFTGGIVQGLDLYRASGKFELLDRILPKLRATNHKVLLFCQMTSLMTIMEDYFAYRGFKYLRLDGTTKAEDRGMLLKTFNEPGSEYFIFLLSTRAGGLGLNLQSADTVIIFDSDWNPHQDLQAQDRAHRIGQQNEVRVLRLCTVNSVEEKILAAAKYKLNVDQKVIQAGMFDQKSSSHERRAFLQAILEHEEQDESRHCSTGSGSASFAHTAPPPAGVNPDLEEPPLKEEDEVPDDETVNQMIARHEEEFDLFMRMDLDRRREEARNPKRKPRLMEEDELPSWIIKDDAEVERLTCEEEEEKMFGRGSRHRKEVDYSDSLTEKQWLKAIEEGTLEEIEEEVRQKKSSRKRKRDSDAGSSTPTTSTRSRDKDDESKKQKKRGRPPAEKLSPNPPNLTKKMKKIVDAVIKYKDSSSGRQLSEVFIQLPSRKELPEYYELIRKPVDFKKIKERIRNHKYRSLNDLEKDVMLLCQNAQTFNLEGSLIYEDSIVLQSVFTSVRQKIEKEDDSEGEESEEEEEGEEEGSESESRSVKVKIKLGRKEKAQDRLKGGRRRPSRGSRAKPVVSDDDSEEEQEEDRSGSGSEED

In the next test the target is SMARCA2 (Homo sapiens, UniProt P51531). In words: HiBit assay in engineered HT1080 CRISPR knock-in cell, 6 hrs (B series), SMARCA2. Format: cell-based. Particulars: 6 hrs incubation; for DC50: HT1080 CRISPR knock-in cells, read-out: SMARC A2 HT1080 HiBit DC50; for Dmax: HT-1080, HT1080 CRISPR knock-in cells, read-out: SMARC A2 HT1080 HiBit Dmax (%). In outline:
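Engineered HT1080 knock-in cells, 2000 cells/well, 6 hrs compound exposure, 37° C/5% CO2, 0.1% DMSO final. Lytic detection: LgBiT 1:100 plus HiBiT substrate 1:50 in lytic buffer, 10 min shake at RT, luminescence read.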

Setting [1] is: HT-1080, HT1080 CRISPR knock-in cells, 6 hrs incubation, read-out: SMARC A4 HT1080 HiBit Dmax(%).

Sequence of SMARCA2 (P51531 whole entry): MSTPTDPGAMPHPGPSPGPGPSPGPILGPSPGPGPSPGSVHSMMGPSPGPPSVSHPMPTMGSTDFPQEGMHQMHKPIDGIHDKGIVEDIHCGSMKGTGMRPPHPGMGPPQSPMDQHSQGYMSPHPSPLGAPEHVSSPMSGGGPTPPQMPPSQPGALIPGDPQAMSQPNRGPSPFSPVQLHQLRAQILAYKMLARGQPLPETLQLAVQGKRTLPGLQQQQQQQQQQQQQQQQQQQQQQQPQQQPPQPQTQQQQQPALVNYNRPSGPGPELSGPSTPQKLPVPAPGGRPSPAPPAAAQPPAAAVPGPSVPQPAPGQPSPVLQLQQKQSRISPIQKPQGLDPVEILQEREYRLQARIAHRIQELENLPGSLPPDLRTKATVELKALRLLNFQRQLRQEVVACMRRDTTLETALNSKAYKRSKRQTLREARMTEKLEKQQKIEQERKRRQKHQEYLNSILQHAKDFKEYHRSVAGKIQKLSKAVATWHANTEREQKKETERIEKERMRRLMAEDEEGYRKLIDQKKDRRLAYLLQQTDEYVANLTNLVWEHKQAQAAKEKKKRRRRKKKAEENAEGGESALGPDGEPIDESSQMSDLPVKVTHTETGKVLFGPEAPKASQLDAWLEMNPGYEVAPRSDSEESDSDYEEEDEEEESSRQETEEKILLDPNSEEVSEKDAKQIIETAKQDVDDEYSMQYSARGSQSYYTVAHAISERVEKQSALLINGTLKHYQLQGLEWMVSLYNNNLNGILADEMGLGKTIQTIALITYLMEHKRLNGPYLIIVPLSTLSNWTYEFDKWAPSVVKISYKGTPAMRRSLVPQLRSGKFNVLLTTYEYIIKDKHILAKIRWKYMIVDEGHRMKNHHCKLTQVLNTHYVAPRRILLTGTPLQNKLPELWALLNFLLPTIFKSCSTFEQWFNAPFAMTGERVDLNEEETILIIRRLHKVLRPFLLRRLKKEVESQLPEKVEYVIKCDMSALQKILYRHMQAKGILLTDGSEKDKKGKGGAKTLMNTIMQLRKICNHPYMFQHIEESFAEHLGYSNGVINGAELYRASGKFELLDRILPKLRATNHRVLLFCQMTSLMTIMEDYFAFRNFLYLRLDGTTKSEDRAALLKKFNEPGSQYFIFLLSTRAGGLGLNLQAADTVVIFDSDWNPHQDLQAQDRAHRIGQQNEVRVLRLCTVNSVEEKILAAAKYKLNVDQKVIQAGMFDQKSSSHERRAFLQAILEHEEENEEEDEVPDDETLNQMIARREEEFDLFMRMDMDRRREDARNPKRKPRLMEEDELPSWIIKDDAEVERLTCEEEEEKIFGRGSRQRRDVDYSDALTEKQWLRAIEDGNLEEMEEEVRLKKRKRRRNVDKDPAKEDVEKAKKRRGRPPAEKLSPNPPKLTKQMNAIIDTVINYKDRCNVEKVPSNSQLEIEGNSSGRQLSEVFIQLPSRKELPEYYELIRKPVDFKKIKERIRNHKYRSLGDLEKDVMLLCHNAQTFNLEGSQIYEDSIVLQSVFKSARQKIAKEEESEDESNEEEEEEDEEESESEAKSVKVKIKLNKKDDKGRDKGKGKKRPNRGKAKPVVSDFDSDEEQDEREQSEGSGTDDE

Consider `Cc1ncsc1-c1ccc([C@H](C)NC(=O)[C@@H]2C[C@@H](O)CN2C(=O)[C@@H](NC(=O)C23CCC(CN4CCC(c5ccc6c(c5)-n5c(nc(=O)c7c(Cl)cccc75)C6(C)C)CC4)(CC2)C3)C(C)(C)C)cc1` [Compound B77, (2S,4R)-1-((S)-2-(4-((4-(4-chloro-7,7-dimethyl-5-oxo-5,7-dihydroindolo[1,2-a]quinazolin-10-yl)piperidin-1-yl)methyl)bicyclo[2.2.1]heptane-1-carboxamido)-3,3-dimethylbutanoyl)-4-hydroxy-N-((S)-1-(4-(4-methylthiazol-5-yl)phenyl)ethyl)pyrrolidine-2-carboxamide], for which the DC50 is 100 to 500 nM on SMARCA4 (6 hrs incubation) and less than 100 nM on SMARCA2. For the same compound, the Dmax at SMARCA4 (setting [1]) is 50 to 69%; on SMARCA2 it was greater than 90%.
Turning to `Cc1ncsc1-c1ccc([C@H](C)NC(=O)[C@@H]2C[C@@H](O)CN2C(=O)[C@H](C(C)C)n2cc([C@H]3CC[C@H](CN4CCC(c5ccc6c(c5)C(C)(C)c5nc(=O)c7c(Cl)cccc7n5-6)CC4)CC3)nn2)cc1` [Compound B78, (2S,4R)-1-((S)-2-(4-((1r,4S)-4-((4-(4-chloro-7,7-dimethyl-5-oxo-5,7-dihydroindolo[1,2-a]quinazolin-9-yl)piperidin-1-yl)methyl)cyclohexyl)-1H-1,2,3-triazol-1-yl)-3-methylbutanoyl)-4-hydroxy-N—((S)-1-(4-(4-methylthiazol-5-yl)phenyl)ethyl)pyrrolidine-2-carboxamide], the DC50 on SMARCA4 (6 hrs incubation) and at SMARCA2 was less than 100 nM in each case. Moreover, the Dmax on SMARCA4 (HT-1080, read-out: SMARC A4 HT1080 HiBit Dmax(%), HT1080 CRISPR knock-in cells, 6 hrs incubation) was greater than 90%; on SMARCA2, greater than 90%.
For the compound `C=C[C@H](NC(=O)[C@@H]1C[C@@H](O)CN1C(=O)[C@@H](NC(=O)[C@H]1CC[C@H](CN2CCC(c3ccc4c(c3)C(C)(C)c3nc(=O)c5c(Cl)cccc5n3-4)CC2)CC1)C(C)(C)C)c1ccc(-c2scnc2C)cc1` [Compound B79, (2S,4R)-1-((S)-2-((11,4S)-4-((4-(4-chloro-7,7-dimethyl-5-oxo-5,7-dihydroindolo[1,2-a]quinazolin-9-yl)piperidin-1-yl)methyl)cyclohexane-1-carboxamido)-3,3-dimethylbutanoyl)-4-hydroxy-N-((S)-1-(4-(4-methylthiazol-5-yl)phenyl)allyl)pyrrolidine-2-carboxamide], the DC50 at SMARCA4 (6 hrs incubation) is 100 to 500 nM; on SMARCA2 it was less than 100 nM. For the same compound, the Dmax on SMARCA4 (setting [1]) is less than 50%; at SMARCA2, 70 to 90%.
On to `Cc1ncsc1-c1ccc(CNC(=O)[C@@H]2C[C@@H](O)CN2C(=O)[C@@H](NC(=O)C2(F)CC2)C(C)(C)C)c(OCC2CCC(N3CCC(c4ccc5c(c4)-n4c(nc(=O)c6c(Cl)cccc64)C5(C)C)CC3)CC2)c1` (stereo partly drawn) [Compound B80, (2S,4R)-N-(2-((4-(4-(4-chloro-7,7-dimethyl-5-oxo-5,7-dihydroindolo[1,2-a]quinazolin-10-yl)piperidin-1-yl)cyclohexyl)methoxy)-4-(4-methylthiazol-5-yl)benzyl)-1-((S)-2-(1-fluorocyclopropane-1-carboxamido)-3,3-dimethylbutanoyl)-4-hydroxypyrrolidine-2-carboxamide], for which the DC50 at SMARCA4 (6 hrs incubation) and at SMARCA2 was less than 100 nM in each case. Besides, the Dmax on SMARCA4 (setting [1]) and at SMARCA2 was greater than 90% throughout.
Consider `Cc1ncsc1-c1ccc([C@H](C)NC(=O)[C@@H]2C[C@@H](O)CN2C(=O)[C@@H](c2cc(OC3CCC(N4CCC(c5ccc6c(c5)-n5c(nc(=O)c7c(Cl)cccc75)C6(C)C)CC4)CC3)no2)C(C)C)cc1` (stereo partly drawn) [Compound B81, (2S,4R)-1-((R)-2-(3-((4-(4-(4-chloro-7,7-dimethyl-5-oxo-5,7-dihydroindolo[1,2-a]quinazolin-10-yl)piperidin-1-yl)cyclohexyl)oxy)isoxazol-5-yl)-3-methylbutanoyl)-4-hydroxy-N-((S)-1-(4-(4-methylthiazol-5-yl)phenyl)ethyl)pyrrolidine-2-carboxamide], for which the DC50 on SMARCA4 (6 hrs incubation) and on SMARCA2 was less than 100 nM each time. Besides, the Dmax at SMARCA4 (setting [1]) is less than 50%; on SMARCA2, greater than 90%.
On to `Cc1ncsc1-c1ccc([C@H](C)NC(=O)[C@@H]2C[C@@H](O)CN2C(=O)[C@@H](c2cc(OCC3(CN4CCC(c5ccc6c(c5)C(C)(C)c5nc(=O)c7c(Cl)cccc7n5-6)CC4)CC3)no2)C(C)C)cc1` [Compound B82, (2S,4R)-1-((R)-2-(3-((1-((4-(4-chloro-7,7-dimethyl-5-oxo-5,7-dihydroindolo[1,2-a]quinazolin-9-yl)piperidin-1-yl)methyl)cyclopropyl)methoxy)isoxazol-5-yl)-3-methylbutanoyl)-4-hydroxy-N-((S)-1-(4-(4-methylthiazol-5-yl)phenyl)ethyl)pyrrolidine-2-carboxamide], for which the DC50 on SMARCA4 (6 hrs incubation) and on SMARCA2 was less than 100 nM each time. For the same compound, the values for the Dmax at SMARCA4 (setting [1]) and on SMARCA2 were 50 to 69% and 70 to 90%, respectively.
As for `Cc1ncsc1-c1ccc([C@H](C)NC(=O)[C@@H]2C[C@@H](O)CN2C(=O)[C@@H](NC(=O)CCCn2cc(-c3ccc4c(c3)-n3c(nc(=O)c5c(Cl)cccc53)C4(C)C)cn2)C(C)(C)C)cc1` [Compound B83, (2S,4R)-1-((S)-2-(4-(4-(4-chloro-7,7-dimethyl-5-oxo-5,7-dihydroindolo[1,2-a]quinazolin-10-yl)-1H-pyrazol-1-yl)butanamido)-3,3-dimethylbutanoyl)-4-hydroxy-N-((S)-1-(4-(4-methylthiazol-5-yl)phenyl)ethyl)pyrrolidine-2-carboxamide], the figures for the DC50 on SMARCA4 (6 hrs incubation) and at SMARCA2 were greater than 1000 nM and 100 to 500 nM, respectively. Also, the Dmax at SMARCA4 (setting [1]) and on SMARCA2 was less than 50% in each case.
In the case of `Cc1cc(C(C(=O)N2C[C@H](O)C[C@H]2C(=O)N[C@@H](CCCCCN2CCC(c3ccc4c(c3)-n3c(nc(=O)c5c(Cl)cccc53)C4(C)C)CC2)c2ccc(-c3scnc3C)cc2)C(C)C)on1` (stereo partly drawn) [Compound B84, (2S,4R)-N-((S)-6-(4-(4-chloro-7,7-dimethyl-5-oxo-5,7-dihydroindolo[1,2-a]quinazolin-10-yl)piperidin-1-yl)-1-(4-(4-methylthiazol-5-yl)phenyl)hexyl)-4-hydroxy-1-(3-methyl-2-(3-methylisoxazol-5-yl)butanoyl)pyrrolidine-2-carboxamide], the DC50 on SMARCA4 (6 hrs incubation) and on SMARCA2 was less than 100 nM throughout. Further, the Dmax at SMARCA4 (setting [1]) and on SMARCA2 was greater than 90% throughout.
On to `Cc1cc(C(C(=O)N2C[C@H](O)C[C@H]2C(=O)N[C@@H](CCCCCN2CCC(c3ccc4c(c3)C(C)(C)c3nc(=O)c5c(Cl)cccc5n3-4)CC2)c2ccc(-c3scnc3C)cc2)C(C)C)on1` (stereo partly drawn) [Compound B85, (2S,4R)-N-((S)-6-(4-(4-chloro-7,7-dimethyl-5-oxo-5,7-dihydroindolo[1,2-a]quinazolin-9-yl)piperidin-1-yl)-1-(4-(4-methylthiazol-5-yl)phenyl)hexyl)-4-hydroxy-1-(3-methyl-2-(3-methylisoxazol-5-yl)butanoyl)pyrrolidine-2-carboxamide], for which the DC50 at SMARCA4 (6 hrs incubation) and at SMARCA2 was less than 100 nM throughout. Moreover, the Dmax at SMARCA4 (setting [1]) and on SMARCA2 was greater than 90% in each case.
For `Cc1ncsc1-c1ccc([C@H](C)NC(=O)[C@@H]2C[C@@H](O)CN2C(=O)[C@@H](n2cc(C3CC4(C3)CC(N3CCC(c5ccc6c(c5)-n5c(nc(=O)c7c(Cl)cccc75)C6(C)C)CC3)C4)nn2)C(C)(C)C)cc1` (stereo partly drawn) [Compound B86, (2S,4R)-1-((S)-2-(4-(6-(4-(4-chloro-7,7-dimethyl-5-oxo-5,7-dihydroindolo[1,2-a]quinazolin-10-yl)piperidin-1-yl)spiro[3.3]heptan-2-yl)-1H-1,2,3-triazol-1-yl)-3,3-dimethylbutanoyl)-4-hydroxy-N—((S)-1-(4-(4-methylthiazol-5-yl)phenyl)ethyl)pyrrolidine-2-carboxamide], the DC50 on SMARCA4 (6 hrs incubation) and on SMARCA2 was less than 100 nM in each case. Moreover, the Dmax at SMARCA4 (setting [1]) is 70 to 90%; at SMARCA2 it was greater than 90%.
As to `Cc1ncsc1-c1ccc([C@H](C)NC(=O)[C@@H]2C[C@@H](O)CN2C(=O)[C@@H](NC(=O)CCCCn2cc(-c3ccc4c(c3)C(C)(C)c3nc(=O)c5c(Cl)cccc5n3-4)cn2)C(C)(C)C)cc1` [Compound B87, (2S,4R)-1-((S)-2-(5-(4-(4-chloro-7,7-dimethyl-5-oxo-5,7-dihydroindolo[1,2-a]quinazolin-9-yl)-1H-pyrazol-1-yl)pentanamido)-3,3-dimethylbutanoyl)-4-hydroxy-N-((S)-1-(4-(4-methylthiazol-5-yl)phenyl)ethyl)pyrrolidine-2-carboxamide], the DC50 at SMARCA4 (6 hrs incubation) is greater than 1000 nM; on SMARCA2 it was 100 to 500 nM. Besides, the Dmax is less than 50% at SMARCA4 (setting [1]) and 50 to 69% at SMARCA2.
In the same order, the values of `C[C@H](NC(=O)[C@@H]1C[C@@H](O)CN1C(=O)[C@@H](NC(=O)[C@H]1CC[C@H](CN2CCC(c3ccc4c(c3)C(C)(C)c3nc(=O)c5c(Cl)cccc5n3-4)CC2)CC1)C(C)(C)C)c1ccc(-c2ncnn2C)cc1` [Compound B88, (2S,4R)-1-((S)-2-((11,4S)-4-((4-(4-chloro-7,7-dimethyl-5-oxo-5,7-dihydroindolo[1,2-a]quinazolin-9-yl)piperidin-1-yl)methyl)cyclohexane-1-carboxamido)-3,3-dimethylbutanoyl)-4-hydroxy-N-((S)-1-(4-(1-methyl-1H-1,2,4-triazol-5-yl)phenyl)ethyl)pyrrolidine-2-carboxamide] are greater than 1000 nM, greater than 1000 nM, less than 50% and less than 50%.
